Molecular target: T1, estrogen-related receptor alpha (ERRα; NR3B1) (Homo sapiens, UniProt P11474)
T1 construct: gene ESRRA
T1 sequence (P11474 193-423 limits assumed): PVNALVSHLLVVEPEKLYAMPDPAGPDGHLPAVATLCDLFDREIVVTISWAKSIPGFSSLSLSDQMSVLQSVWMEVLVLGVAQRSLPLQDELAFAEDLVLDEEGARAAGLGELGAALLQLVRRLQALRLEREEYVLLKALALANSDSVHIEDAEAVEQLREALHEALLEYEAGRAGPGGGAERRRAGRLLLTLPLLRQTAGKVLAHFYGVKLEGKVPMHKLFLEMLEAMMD
Test: tryptophan fluorescence quenching; GST pull-down with LC-MS/MS
Format: binding

Structure (SMILES): CC(C)CCC[C@@H](C)[C@H]1CC[C@H]2[C@@H]3CC=C4C[C@@H](O)CC[C@]4(C)[C@H]3CC[C@]12C [cholesterol]
- Kd: 213 nM
